Measured values from ChEMBL document CHEMBL1201862, “PubChem BioAssay data set” (2004).
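Step 1: Grow cells in 96-well plates. Step 2: Expose to compound for 48 hours at 5 concentrations. Step 3: Interpolate endpoints linearly; if unreached, use highest concentration. Here, GI50 denotes the concentration required for 50% inhibition of growth.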 Calls of active or inactive are those of the source. No stated cut-off is given here; in the data, active = GI50 up to about 1.1 µM and inactive = higher.

Experiments:
Assay in all cases: inhibition of tumour cell growth, NCI panel, 48 h
[1] = system: Malme-3M
[2] = system: Hs-578T
[3] = system: HCC 2998
[4] = system: HOP-92
[5] = system: UACC-62
[6] = system: SK-OV-3
[7] = system: HT-29
[8] = system: SW-620
[9] = system: DU-145
[10] = system: M14
[11] = system: SNB-19
[12] = system: MDA-MB-435
[13] = system: MCF7
[14] = system: SF-539
[15] = system: COLO 205
[16] = system: UO-31
[17] = system: NCI/ADR-RES
[18] = system: MDA-N
[19] = system: HCT-116
[20] = system: CCRF-CEM

Measured: GI50

NC1=Nc2ccccc2Sc2nnc(-c3ccc(Cl)cc3)n21
inactive: [1] > 100 µM | [2] 35.2 µM | [3] > 100 µM | [4] 68.2 µM | [5] 61.4 µM | [6] > 100 µM | [7] > 100 µM | [8] 57.1 µM | [9] 49.2 µM | [10] > 100 µM | [11] 46.8 µM | [12] > 100 µM | [13] > 100 µM | [14] 26.2 µM | [15] 76.7 µM | [16] > 100 µM | [17] 33.2 µM | [18] > 100 µM | [19] 9.53 µM | [20] 14.8 µM

C/C=C/[C@@H]1[C@H]2C(=O)[C@]3(Cl)[C@@H](/C=C/C)[C@@H]3C(=O)[C@@]12Cl
inactive: [1] > 100 µM | [2] 35.2 µM | [3] > 100 µM | [4] 94 µM | [5] > 100 µM | [6] > 100 µM | [7] > 100 µM | [8] > 100 µM | [9] > 100 µM | [10] > 100 µM | [11] > 100 µM | [12] > 100 µM | [13] > 100 µM | [14] > 100 µM | [15] > 100 µM | [16] > 100 µM | [17] > 100 µM | [18] > 100 µM | [19] > 100 µM | [20] 52 µM

Cc1cc(-c2ccc(C(=O)C(c3ccccc3)(c3ccccc3)c3ccccc3)[nH]2)on1
inactive: [1] 31.4 µM | [2] 19.2 µM | [3] 11.2 µM | [4] 16.1 µM | [5] 16.1 µM | [6] 32.1 µM | [7] 11.4 µM | [8] 19.8 µM | [9] 14.2 µM | [10] 22.8 µM | [11] 19 µM | [12] 20.1 µM | [13] 18.2 µM | [14] 29.7 µM | [15] 15.9 µM | [16] 15.2 µM | [17] 15.8 µM | [18] 16.6 µM | [19] 12.5 µM | [20] 15.5 µM
